{
  "source": "paper PMC5424254",
  "about": "“Growth Trade-Offs Accompany the Emergence of Glycolytic Metabolism in Shewanella oneidensis MR-1” (Journal of Bacteriology, 2017)",
  "biological_target": "T1, NagK (GlcNAc kinase) (Shewanella oneidensis, UniProt Q8EBK6)",
  "T1 sequence (Q8EBK6 2-300)": "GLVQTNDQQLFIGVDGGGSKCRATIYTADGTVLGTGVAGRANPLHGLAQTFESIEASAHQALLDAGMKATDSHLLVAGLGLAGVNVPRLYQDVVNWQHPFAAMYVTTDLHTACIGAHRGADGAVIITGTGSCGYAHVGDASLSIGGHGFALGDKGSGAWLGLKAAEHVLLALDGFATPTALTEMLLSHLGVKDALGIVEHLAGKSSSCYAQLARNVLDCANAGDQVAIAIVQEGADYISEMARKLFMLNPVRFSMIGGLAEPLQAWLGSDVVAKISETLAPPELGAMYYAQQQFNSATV",
  "test": "ADP-Glo kinase assay (luminescence)",
  "format": "biochemical",
  "settings": "ATP; 40 mM Tris-HCl, 20 mM MgCl2, 0.1 mg/ml BSA; 0.1 to 1 mM substrate",
  "data": [
    {"smiles": "CC(=O)N[C@H]1C(O)O[C@H](CO)[C@@H](O)[C@@H]1O", "note": "(stereo partly shown) [GlcNAc, N-acetylglucosamine]", "values": [
      {"measurement": "ADP-Glo kinase assay (luminescence)", "value": "NagK is able to phosphorylate glucose in addition to its known substrate, GlcNAc"}
    ]}
  ]
}
